Assay results from ChEMBL document CHEMBL3132800, “Identification of novel inhibitors of p53MDM2 interaction facilitated by pharmacophore-based virtual screening combining molecular docking strategy” (Medchemcomm, 2013).

Tests used:
PC-3 = test: Cytotoxicity against human PC3 cells after 72 hrs by SRB assay; assay type: functional, cell-based; details: PC-3, 72 h
SW-620 = test: Cytotoxicity against human SW620 cells after 72 hrs by SRB assay; assay type: functional, cell-based; details: SW-620, 72 h
HCT-116 [1] = test: Cytotoxicity against human HCT116 cells after 72 hrs by SRB assay; assay type: functional, cell-based; details: HCT-116, 72 h
A549 = test: Cytotoxicity against human A549 cells after 72 hrs by SRB assay; assay type: functional, cell-based; details: A549, 72 h
SJSA-1 = test: Cytotoxicity against human SJSA1 cells after 72 hrs by SRB assay; assay type: functional, cell-based; details: SJSA-1, 72 h
HCT-116 [2] = test: Cytotoxicity against human HCT116 cells after 72 hrs by SRB assay relative to Nutlin-3; assay type: functional
[3] = molecular target: Tumour suppressor p53/oncoprotein Mdm2 (Homo sapiens, UniProt Q00987); test: Inhibition of p53-MDM2 (1 to 118 residues) interaction (unknown origin) expressed in Escherichia coli BL-21 (DE3) assessed as inhibition of MDM2 binding by fluorescence polarization competitive binding assay
Sequence of Tumour suppressor p53/oncoprotein Mdm2 (P04637 whole entry, the tested form may be a part): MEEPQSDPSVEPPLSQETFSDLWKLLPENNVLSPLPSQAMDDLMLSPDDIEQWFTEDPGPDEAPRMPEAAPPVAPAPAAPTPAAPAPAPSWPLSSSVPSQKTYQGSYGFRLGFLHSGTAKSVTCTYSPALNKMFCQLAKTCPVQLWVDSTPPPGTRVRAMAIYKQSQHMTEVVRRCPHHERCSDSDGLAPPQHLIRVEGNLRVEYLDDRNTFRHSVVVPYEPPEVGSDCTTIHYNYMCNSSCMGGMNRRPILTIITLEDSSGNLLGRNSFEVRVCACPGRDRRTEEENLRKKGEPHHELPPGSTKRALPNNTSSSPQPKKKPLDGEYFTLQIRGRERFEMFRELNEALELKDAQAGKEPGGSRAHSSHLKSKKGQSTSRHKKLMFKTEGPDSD
Sequence of Tumour suppressor p53/oncoprotein Mdm2 (Q00987 whole entry, the tested form may be a part): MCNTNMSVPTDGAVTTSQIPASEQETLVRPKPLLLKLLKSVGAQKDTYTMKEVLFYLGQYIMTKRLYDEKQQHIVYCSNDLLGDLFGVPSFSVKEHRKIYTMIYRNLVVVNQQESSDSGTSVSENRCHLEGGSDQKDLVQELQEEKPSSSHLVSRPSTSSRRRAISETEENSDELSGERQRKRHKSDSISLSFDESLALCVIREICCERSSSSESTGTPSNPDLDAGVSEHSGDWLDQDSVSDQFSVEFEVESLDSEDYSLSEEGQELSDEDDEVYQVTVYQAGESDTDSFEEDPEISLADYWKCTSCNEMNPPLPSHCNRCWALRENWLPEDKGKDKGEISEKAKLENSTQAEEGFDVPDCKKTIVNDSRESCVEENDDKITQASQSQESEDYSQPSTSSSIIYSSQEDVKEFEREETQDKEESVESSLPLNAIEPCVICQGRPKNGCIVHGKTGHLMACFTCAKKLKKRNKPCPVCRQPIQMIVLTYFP

| Compound | IC50 (PC-3) [µM] | IC50 (SW-620) [µM] | IC50 (HCT-116 [1]) [µM] | IC50 (A549) [µM] | IC50 (SJSA-1) [µM] | Ratio IC50 (HCT-116 [2]) | IC50 [3] [µM] |
| --- | --- | --- | --- | --- | --- | --- | --- |
| COc1ccc(C2=NC(c3ccc(Cl)cc3)C(c3ccc(Cl)cc3)N2C(=O)N2CCNC(=O)C2)c(OC(C)C)c1 (racemic) | 6.37 | 0.38 | 4.63 | 0.41 | 1.81 |  |  |
| Nc1sc(-c2ccc(Cl)cc2)c(-c2ccc(Cl)cc2)c1C(=O)NC1CCCCC1 |  | 3.07 | 0.59 |  | 102 | 1.3 | 0.9 |
| Nc1sc(-c2ccc(Cl)cc2)c(-c2ccc(Cl)cc2)c1C(=O)NC1CC1 |  | 1.74 | 0.24 |  | 31.9 | 1.3 | 2.08 |
| Nc1sc(-c2ccc(Cl)cc2)c(-c2ccc(Cl)cc2)c1C(=O)Nc1ccccc1 |  | 39.7 | 14.5 |  | > 500 |  | > 50 |
| Nc1sc(-c2ccc(Cl)cc2)c(-c2ccc(Cl)cc2)c1C(=O)N1CCCC1 |  | 3.87 | 3.63 |  | 17.6 | 1.3 | 2.84 |
| COC(=O)c1c(N)sc(-c2ccc(Cl)cc2)c1-c1ccc(Cl)cc1 |  | 3.23 | 1.66 |  | 40.9 | 1.3 | 4.23 |
